In the supplement of paper PMC10627819:

Legend:
Assay in all cases: Bliss interaction score (quartile over a dose matrix) (fitness difference); higher = more antagonism (negative = synergy)
S. aureus Newman = system: S. aureus Newman
In short: (§1)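 At entry into stationary phase, OD595 was recorded and divided by the robust mean of the no-drug wells on that plate, with any value above 1 set to 1. This gives the fitness measure used throughout. Single-drug fitness was inferred from combination data, and the Bliss score, observed minus product-expected fitness, is shown as quartiles across technical, biological and donor/recipient replicates.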

B. subtilis 168 = system: B. subtilis 168
In short: as §1

S. aureus DSM 20231 = system: S. aureus DSM 20231
In short: as §1

S. pneumoniae D39V = system: S. pneumoniae D39V
In short: as §1
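Note: first quartile when negative (synergy) and third quartile when positive (antagonism).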

SMILES	Bliss interaction score (S. aureus Newman)	Bliss interaction score (B. subtilis 168)	Bliss interaction score (S. aureus DSM 20231)	Bliss interaction score (S. pneumoniae D39V)	Bliss interaction score (S. aureus Newman; main component drawn)	Bliss interaction score (B. subtilis 168; main component drawn)	Bliss interaction score (S. aureus DSM 20231; main component drawn)	Bliss interaction score (S. pneumoniae D39V; main component drawn)
CC(=O)OC[C@H]1O[C@@H]([S-])[C@H](OC(C)=O)[C@@H](OC(C)=O)[C@@H]1OC(C)=O.CCP(CC)CC.[Au+] [Auranofin] + COc1cc(Cc2cnc(N)nc2N)cc(OC)c1OC [Trimethoprim]	-0.0844	-0.0454	0.0284	-0.0729				
CC(=O)OC[C@H]1O[C@@H]([S-])[C@H](OC(C)=O)[C@@H](OC(C)=O)[C@@H]1OC(C)=O.CCP(CC)CC.[Au+] [Auranofin] + COc1ccc(C[C@H](N)C(=O)N[C@H]2[C@@H](O)[C@H](n3cnc4c(N(C)C)ncnc43)O[C@@H]2CO)cc1 [Puromycin]	-0.0752	-0.0523	-0.0538	-0.103				
CC(=O)OC[C@H]1O[C@@H]([S-])[C@H](OC(C)=O)[C@@H](OC(C)=O)[C@@H]1OC(C)=O.CCP(CC)CC.[Au+] [Auranofin] + COc1cccc2c1C(=O)c1c(O)c3c(c(O)c1C2=O)C[C@@](O)(C(=O)CO)C[C@@H]3O[C@H]1C[C@H](N)[C@H](O)[C@H](C)O1 [Doxorubicin]	0.112	0.0674	-0.0288	-0.0943				
CC(=O)OC[C@H]1O[C@@H]([S-])[C@H](OC(C)=O)[C@@H](OC(C)=O)[C@@H]1OC(C)=O.CCP(CC)CC.[Au+] [Auranofin] + C[C@@H]1O[C@@H]1P(=O)(O)O [Fosfomycin]	0.0901	0.0301	0.0509	-0.0421				
CC(=O)OC[C@H]1O[C@@H]([S-])[C@H](OC(C)=O)[C@@H](OC(C)=O)[C@@H]1OC(C)=O.CCP(CC)CC.[Au+] [Auranofin] + C[C@@H](O)[C@H]1C(=O)N2C(C(=O)O)=C(SCCNC=N)C[C@H]12 [Imipenem]	0.162	-0.0439	-0.0179	-0.0587				
CC(=O)OC[C@H]1O[C@@H]([S-])[C@H](OC(C)=O)[C@@H](OC(C)=O)[C@@H]1OC(C)=O.CCP(CC)CC.[Au+] [Auranofin] + C[C@H]1COc2c(N3CCN(C)CC3)c(F)cc3c(=O)c(C(=O)O)cn1c23 [Levofloxacin]	0.0684	0.044	0.0688	-0.0939				
CC(=O)OC[C@H]1O[C@@H]([S-])[C@H](OC(C)=O)[C@@H](OC(C)=O)[C@@H]1OC(C)=O.CCP(CC)CC.[Au+] [Auranofin] + C[C@H]1c2cccc(O)c2C(=O)C2=C(O)[C@]3(O)C(=O)C(C(N)=O)=C(O)[C@@H](N(C)C)[C@@H]3[C@@H](O)[C@@H]21 [Doxycycline]	0.0622	0.0704	-0.0178	0.052				
CC(=O)OC[C@H]1O[C@@H]([S-])[C@H](OC(C)=O)[C@@H](OC(C)=O)[C@@H]1OC(C)=O.CCP(CC)CC.[Au+] [Auranofin] + C[n+]1ccc(-c2cc[n+](C)cc2)cc1 [Paraquat]	-0.0941	-0.0338	-0.0369	0.0914				
CC(=O)OC[C@H]1O[C@@H]([S-])[C@H](OC(C)=O)[C@@H](OC(C)=O)[C@@H]1OC(C)=O.CCP(CC)CC.[Au+] [Auranofin] + Cc1cc(NS(=O)(=O)c2ccc(N)cc2)no1 [Sulfamethoxazol]	-0.0374	-0.0445	-0.0419	0.088				
CC(=O)OC[C@H]1O[C@@H]([S-])[C@H](OC(C)=O)[C@@H](OC(C)=O)[C@@H]1OC(C)=O.CCP(CC)CC.[Au+] [Auranofin] + Cc1ncc([N+](=O)[O-])n1CCO [Metronidazole]	-0.137	-0.0357	-0.046	0.133				
CC(=O)OC[C@H]1O[C@@H]([S-])[C@H](OC(C)=O)[C@@H](OC(C)=O)[C@@H]1OC(C)=O.CCP(CC)CC.[Au+] [Auranofin] + Cc1onc(-c2ccccc2)c1C(=O)N[C@@H]1C(=O)N2[C@@H]1SC(C)(C)[C@@H]2C(=O)O [Oxacillin]	-0.0535	-0.0319	0.0406	0.125				
CC(=O)OC[C@H]1O[C@@H]([S-])[C@H](OC(C)=O)[C@@H](OC(C)=O)[C@@H]1OC(C)=O.CCP(CC)CC.[Au+] [Auranofin] + Clc1ccc(COC(Cn2ccnc2)c2ccc(Cl)cc2Cl)c(Cl)c1 [Miconazole]	0.0208	0.0318	-0.0279	0.086				
CC(=O)OC[C@H]1O[C@@H]([S-])[C@H](OC(C)=O)[C@@H](OC(C)=O)[C@@H]1OC(C)=O.CCP(CC)CC.[Au+] [Auranofin] + Cn1nnc(-c2ccc(-c3ccc(N4C[C@H](CO)OC4=O)cc3F)cn2)n1 [Tedizolid]	-0.108	-0.0317	-0.0334	0.0602				
CC(=O)OC[C@H]1O[C@@H]([S-])[C@H](OC(C)=O)[C@@H](OC(C)=O)[C@@H]1OC(C)=O.CCP(CC)CC.[Au+] [Auranofin] + N[C@@H]1CONC1=O [CycloserineD]	0.0247	0.0806	-0.0513	0.106				
CC(=O)OC[C@H]1O[C@@H]([S-])[C@H](OC(C)=O)[C@@H](OC(C)=O)[C@@H]1OC(C)=O.CCP(CC)CC.[Au+] [Auranofin] + O=C1CN(/N=C/c2ccc([N+](=O)[O-])o2)C(=O)N1 [Nitrofurantoin]	-0.132	-0.066	-0.0217	-0.421				
CC(=O)OC[C@H]1O[C@@H]([S-])[C@H](OC(C)=O)[C@@H](OC(C)=O)[C@@H]1OC(C)=O.CCP(CC)CC.[Au+] [Auranofin] + O=C(N[C@H](CO)[C@H](O)c1ccc([N+](=O)[O-])cc1)C(Cl)Cl [Chloramphenicol]	0.0594	0.0717	0.0319	-0.0406				
CC(=O)OC[C@H]1O[C@@H]([S-])[C@H](OC(C)=O)[C@@H](OC(C)=O)[C@@H]1OC(C)=O.CCP(CC)CC.[Au+] [Auranofin] + O=C(O)[C@H]1/C(=C/CO)O[C@@H]2CC(=O)N21 [Clavulanic]	0.167	-0.0681	-0.188	-0.0729				
CC(=O)OC[C@H]1O[C@@H]([S-])[C@H](OC(C)=O)[C@@H](OC(C)=O)[C@@H]1OC(C)=O.CCP(CC)CC.[Au+] [Auranofin] + O=C(O)c1cn(C2CC2)c2cc(N3CCNCC3)c(F)cc2c1=O [Ciprofloxacin]	0.0727	0.0472	0.0217	-0.11				
CC(=O)OC[C@H]1O[C@@H]([S-])[C@H](OC(C)=O)[C@@H](OC(C)=O)[C@@H]1OC(C)=O.CCP(CC)CC.[Au+] [Auranofin] + O=C(O[C@@H]1Cc2c(O)cc(O)cc2O[C@@H]1c1cc(O)c(O)c(O)c1)c1cc(O)c(O)c(O)c1 [EGCG]	-0.0511	0.0518	-0.0255	0.08				
CC(=O)OC[C@H]1O[C@@H]([S-])[C@H](OC(C)=O)[C@@H](OC(C)=O)[C@@H]1OC(C)=O.CCP(CC)CC.[Au+] [Auranofin] + Oc1cc(Cl)ccc1Oc1ccc(Cl)cc1Cl [Triclosan]	-0.0211	-0.0277	-0.0223	0.106				
O=C(N[C@H](CO)[C@H](O)c1ccc([N+](=O)[O-])cc1)C(Cl)Cl [Chloramphenicol] + CC1(C)S[C@@H]2[C@H](NC(=O)Cc3ccccc3)C(=O)N2[C@H]1C(=O)O [PenicillinG]	-0.0428	0.0719	0.0631	-0.0461				
O=C(N[C@H](CO)[C@H](O)c1ccc([N+](=O)[O-])cc1)C(Cl)Cl [Chloramphenicol] + CC(=O)O[C@H]1C[C@@]2(C)[C@@H](C[C@@H](O)[C@H]3[C@@]4(C)CC[C@@H](O)[C@@H](C)[C@@H]4CC[C@@]32C)/C1=C(\CCC=C(C)C)C(=O)O [Fusidic acid]	-0.0559	0.074	0.0319	-0.103				
O=C(N[C@H](CO)[C@H](O)c1ccc([N+](=O)[O-])cc1)C(Cl)Cl [Chloramphenicol] + CCC(C)C1C(=O)NC(=C)C(=O)NC(C(=O)NC(CSCC(C(=O)N1)NC(=O)/C(=C/C)/NC(=O)C(C(C)CC)N)C(=O)NC2C(SCC(NC(=O)CNC(=O)C3CCCN3C2=O)C(=O)NC(CCCCN)C(=O)NC4C(SCC(NC(=O)CNC(=O)C(NC(=O)C(NC(=O)C(NC(=O)CNC4=O)C)CC(C)C)CCSC)C(=O)NC(CC(=O)N)C(=O)NC(CCSC)C(=O)NC(CCCCN)C(=O)NC5C(SCC6C(=O)NC(C(=O)NC(CSC(C(C(=O)N6)NC(=O)C(NC5=O)C)C)C(=O)NC(CO)C(=O)NC(C(C)CC)C(=O)NC(CC7=CN=CN7)C(=O)NC(C(C)C)C(=O)NC(=C)C(=O)NC(CCCCN)C(=O)O)CC8=CN=CN8)C)C)C)CC(C)C [Nisin]					0.0543	0.0397	-0.0704	-0.102
O=C(N[C@H](CO)[C@H](O)c1ccc([N+](=O)[O-])cc1)C(Cl)Cl [Chloramphenicol] + CC[C@H]1OC(=O)[C@H](C)C(=O)[C@H](C)[C@@H](O[C@@H]2O[C@H](C)C[C@H](N(C)C)[C@H]2O)[C@](C)(OC)C[C@@H](C)C(=O)[C@H](C)[C@H]2N(CCCCn3cnc(-c4cccnc4)c3)C(=O)O[C@]12C [Telithromycin]	-0.0946	-0.0575	-0.104	-0.0437				
O=C(N[C@H](CO)[C@H](O)c1ccc([N+](=O)[O-])cc1)C(Cl)Cl [Chloramphenicol] + CC[C@H]1OC(=O)[C@H](C)[C@@H](O[C@H]2C[C@@](C)(OC)[C@@H](O)[C@H](C)O2)[C@H](C)[C@@H](O[C@@H]2O[C@H](C)C[C@H](N(C)C)[C@H]2O)[C@](C)(O)C[C@@H](C)C(=O)[C@H](C)[C@@H](O)[C@]1(C)O [Erythromycin]	-0.103	0.0488	0.0318	0.0269				
O=C(N[C@H](CO)[C@H](O)c1ccc([N+](=O)[O-])cc1)C(Cl)Cl [Chloramphenicol] + CC[C@H]1OC(=O)[C@H](C)[C@@H](O[C@H]2C[C@@](C)(OC)[C@@H](O)[C@H](C)O2)[C@H](C)[C@@H](O[C@@H]2O[C@H](C)C[C@H](N(C)C)[C@H]2O)[C@](C)(OC)C[C@@H](C)C(=O)[C@H](C)[C@@H](O)[C@]1(C)O [Clarithromycin]	-0.129	-0.0459	-0.158	0.0359				
O=C(N[C@H](CO)[C@H](O)c1ccc([N+](=O)[O-])cc1)C(Cl)Cl [Chloramphenicol] + CN(C)[C@@H]1C(O)=C(C(N)=O)C(=O)[C@@]2(O)C(O)=C3C(=O)c4c(O)ccc(Cl)c4[C@@](C)(O)[C@H]3C[C@@H]12 [Clortetracycline]	-0.0412	-0.117	0.0518	-0.0404				
O=C(N[C@H](CO)[C@H](O)c1ccc([N+](=O)[O-])cc1)C(Cl)Cl [Chloramphenicol] + CN[C@H](CC(C)C)C(=O)N[C@H]1C(=O)N[C@@H](CC(N)=O)C(=O)N[C@H]2C(=O)N[C@H]3C(=O)N[C@H](C(=O)N[C@H](C(=O)O)c4cc(O)cc(O)c4-c4cc3ccc4O)[C@H](O[C@H]3C[C@](C)(N)[C@@H](O)[C@H](C)O3)c3ccc(c(Cl)c3)Oc3cc2cc(c3O[C@@H]2O[C@H](CO)[C@@H](O)[C@H](O)[C@H]2O[C@H]2C[C@](C)(NCc3ccc(-c4ccc(Cl)cc4)cc3)[C@@H](O)[C@H](C)O2)Oc2ccc(cc2Cl)[C@H]1O [Oritavancin]	-0.0346	0.0647	0.0571	0.0499				
O=C(N[C@H](CO)[C@H](O)c1ccc([N+](=O)[O-])cc1)C(Cl)Cl [Chloramphenicol] + CO[C@@H]1[C@@H](OC(N)=O)[C@@H](O)[C@H](Oc2ccc3c(O)c(NC(=O)c4ccc(O)c(CC=C(C)C)c4)c(=O)oc3c2C)OC1(C)C [Novobiocin]	0.0758	0.0928	0.0712	-0.111				
O=C(N[C@H](CO)[C@H](O)c1ccc([N+](=O)[O-])cc1)C(Cl)Cl [Chloramphenicol] + CO[C@@]12[C@H](COC(N)=O)C3=C(C(=O)C(C)=C(N)C3=O)N1C[C@@H]1N[C@@H]12 [MitomycinC]	0.102	0.114	-0.0503	-0.0831				
